How the values were obtained:
Format in all cases: in vivo
Details in all cases: 1000 g/ha, evaluated after 13 days
[1] = tested on: Triticum aestivium (TRZAW); experiment: Pre-emergence herbicidal activity, Triticum aestivium; set-up: key: 5=total damage to plant; 0=no damage to plant
Summary of the method: (§1)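 Compound is applied as an aqueous spray (acetone/water 50:50, 0.5% Tween 20) to pots one day after sowing, before emergence. Growth continues in a glasshouse at 24/16 °C, 14 h photoperiod, 65% humidity, with twice-daily watering, and injury is graded after 13 days from 0 (no damage) to 5 (total damage).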

Avena fatua (AVEFA) [2] = experiment: Pre-emergence herbicidal activity, Avena fatua; set-up: key: 5=total damage to plant; 0=no damage to plant
Summary of the method: as §1

[3] = tested on: Alopecurus myosuroides (ALOMY); experiment: Pre-emergence herbicidal activity, Alopecurus myosuroides; set-up: key: 5=total damage to plant; 0=no damage to plant
Summary of the method: as §1

[4] = tested on: Echinochloa crus-galli (ECHCG); experiment: Pre-emergence herbicidal activity, Echinochloa crus-galli
Summary of the method: as §1

Lolium perenne (LOLPE) [5] = experiment: Pre-emergence herbicidal activity, Lolium perenne; set-up: key: 5=total damage to plant; 0=no damage to plant
Summary of the method: as §1

Setaria faberi (SETFA) [6] = experiment: Pre-emergence herbicidal activity, Setaria faberi; set-up: key: 5=total damage to plant; 0=no damage to plant
Summary of the method: as §1

[7] = tested on: Triticum aestivium (TRZAW); experiment: Post-emergence herbicidal activity, Triticum aestivium; set-up: key: 5=total damage to plant; 0=no damage to plant
Summary of the method: (§2)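 Each value is a visual damage score from 0 (no effect) to 5 (plant killed), assessed 13 days after a foliar spray applied to 8-day-old plants. The compound was applied in acetone/water 50:50 with 0.5% Tween 20 under controlled glasshouse conditions.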

Avena fatua (AVEFA) [8] = experiment: Post-emergence herbicidal activity, Avena fatua; set-up: key: 5=total damage to plant; 0=no damage to plant
Summary of the method: as §2

[9] = tested on: Alopecurus myosuroides (ALOMY); experiment: Post-emergence herbicidal activity, Alopecurus myosuroides; set-up: key: 5=total damage to plant; 0=no damage to plant
Summary of the method: as §2

[10] = tested on: Echinochloa crus-galli (ECHCG); experiment: Post-emergence herbicidal activity, Echinochloa crus-galli; set-up: key: 5=total damage to plant; 0=no damage to plant
Summary of the method: as §2

Lolium perenne (LOLPE) [11] = experiment: Post-emergence herbicidal activity, Lolium perenne
Summary of the method: as §2

Setaria faberi (SETFA) [12] = experiment: Post-emergence herbicidal activity, Setaria faberi; set-up: key: 5=total damage to plant; 0=no damage to plant
Summary of the method: as §2

Compound | Control of TRAZW after pre-emergence application (score 0-5) [1] | Control of AVEFA after pre-emergence application (score 0-5) (Avena fatua (AVEFA) [2]) | Control of ALOMY after pre-emergence application (score 0-5) [3] | Control of ECHCG after pre-emergence application (score 0-5) [4] | Control of LOLPE after pre-emergence application (score 0-5) (Lolium perenne (LOLPE) [5]) | Control of SETFA after pre-emergence application (score 0-5) (Setaria faberi (SETFA) [6]) | Control of TRAZW after post-emergence application (score 0-5) [7] | Control of AVEFA after post-emergence application (score 0-5) (Avena fatua (AVEFA) [8]) | Control of ALOMY after post-emergence application (score 0-5) [9] | Control of ECHCG after post-emergence application (score 0-5) [10] | Control of LOLPE after post-emergence application (score 0-5) (Lolium perenne (LOLPE) [11]) | Control of SETFA after post-emergence application (score 0-5) (Setaria faberi (SETFA) [12])
COCCNC(=O)Nc1ccc(-c2cncc(F)c2)nc1C(F)(F)F [Compound B60] | 0 | 1 | 0 | 4 | 1 | 2 | 1 | 2 | 1 | 5 | 2 | 5
CC(C)(C)NC(=O)Nc1ccc(-c2cncc(F)c2)nc1C(F)(F)F [Compound B65] | 0 | 2 | 1 | 2 | 1 | 3 | 0 | 3 | 1 | 5 | 3 | 4
C=CCN(C(=O)OC(C)(C)C)c1ccc(-c2cncc(F)c2)nc1C(F)(F)F [Compound B9] | 0 | 2 | 1 | 3 | 2 | 5 | 1 | 3 | 1 | 5 | 4 | 5
O=C1OCCN1c1ccc(-c2cncc(F)c2)nc1C(F)(F)F [Compound B45, 3-[6-(5-fluoro-3-pyridyl)-2-(trifluoromethyl)-3-pyridyl]oxazolidin-2-one] | 0 | 0 | 0 | 3 | 0 | 3 | 1 | 3 | 1 | 4 | 2 | 4
O=C(Nc1ccc(-c2cncc(F)c2)nc1C(F)(F)F)OCC1CC1 [Compound B94] | 0 | 3 | 1 | 4 | 2 | 5 | 0 | 3 | 0 | 5 | 3 | 5
CC(C)(C)OC(=O)Nc1ccc(-c2cncc(Cl)c2)nc1C(F)(F)F [Compound B6] | 0 | 2 | 1 | 3 | 1 | 5 | 1 | 3 | 1 | 4 | 4 | 5
O=C1NCCN1c1ccc(-c2cncc(F)c2)nc1C(F)(F)F [Compound B64] | 0 | 0 | 0 | 1 | 0 | 2 | 0 | 3 | 0 | 4 | 1 | 4
COC(=O)c1nc(-c2cncc(F)c2)ccc1N(C(=O)OC(C)(C)C)C(=O)OC(C)(C)C [Compound B76, methyl 3-[bis(tert-butoxycarbonyl)amino]-6-(5-fluoro-3-pyridyl)pyridine-2-carboxylate] | 0 | 0 | 0 | 1 | 0 | 3 | 0 | 0 | 0 | 1 | 1 | 3
CN(C(=O)OC(C)(C)C)c1ccc(-c2cc(F)c[n+]([O-])c2)nc1C(F)(F)F [Compound B1, tert-butyl N-[6-(5-fluoro-1-oxido-pyridin-1-ium-3-yl)-2-(trifluoromethyl)-3-pyridyl]-N-methyl-carbamate] | 0 | 2 | 0 | 2 | 1 | 4 | 0 | 4 | 1 | 4 | 2 | 5

Source: patent publication US20210127673A1, “HERBICIDES” (SYNGENTA PARTICIPATIONS AG, priority 2016, published 2021)
